Our source for the pKa and MTD values is ChEMBL document CHEMBL3272170, “Potential antitumor agents. 24. Dicationic analogues of the 4'-(9-acridinylamino)alkanesulfonanilides” (J Med Chem, 1977).

The structures appear in SMILES notation.

Series [1] in a line: physchem.
Description: Ionization constant, pKa of the compound by UV spectrophotometric analysis
A short description of series [2]: in vivo. The following applies: C3H X DBA2 F1, mouse, ip.
Description: Toxicity in ip dosed C3H X DBA2 F1 mouse allografted with mouse L1210 cells through sc
Series [3] in a line: in vivo. Conditions: C3H X DBA2 F1, mouse, ip. The source holds these as a separate data set.
Description: Toxicity in ip dosed C3H X DBA2 F1 mouse allografted with mouse L1210 cells through ip

In series [1], `CS(=O)(=O)Nc1ccc(Nc2c3ccccc3nc3ccccc23)cc1` came in with a pKa of 7.19.
Same read-out and setting: then `N=C(N)NCCS(=O)(=O)Nc1ccc(Nc2c3ccccc3nc3cc([N+](=O)[O-])ccc23)cc1`, with 5.26.
In series [1], `Cl.NCCCCCCS(=O)(=O)Nc1ccc(Nc2c3ccccc3nc3cc([N+](=O)[O-])ccc23)cc1` showed a pKa of 5.34. The same compound had an MTD in series [2] of 2 mg/kg/day.
In series [1], `Cl.N=C(N)NCCCCS(=O)(=O)Nc1ccc(Nc2c3ccccc3nc3cc(Cl)ccc23)cc1` yielded a pKa of 6.33. Besides, the MTD in series [3] stood at 150 mg/kg/day.
The compound `NCCCCS(=O)(=O)Nc1ccc(Nc2c3ccccc3nc3cc([N+](=O)[O-])ccc23)cc1` displayed a pKa in series [1] of 5.34.
`C[n+]1c2ccccc2c(Nc2ccc(NS(=O)(=O)CCCCN)cc2)c2ccccc21` displayed a pKa in series [1] of 6.72.
Regarding `NCCCS(=O)(=O)Nc1ccc(Nc2c3ccccc3nc3ccccc23)cc1`, the pKa in series [1] stood at 6.89.
On the same count and under the same terms, under `N=C(N)NCCCCS(=O)(=O)Nc1ccc(Nc2c3ccccc3nc3cc([N+](=O)[O-])ccc23)cc1` stands 5.36.
In turn, `CN(C)CCCCS(=O)(=O)Nc1ccc(Nc2c3ccccc3nc3cc([N+](=O)[O-])ccc23)cc1.Cl` registered a pKa in series [1] of 5.36. The MTD in series [2] amounted to 10 mg/kg/day.
The compound `C[n+]1c2ccccc2c(Nc2ccc(NS(C)(=O)=O)cc2)c2ccc(N)cc21` showed a pKa in series [1] of 10.1.
`Cl.NCCCS(=O)(=O)Nc1ccc(Nc2c3ccccc3nc3cc([N+](=O)[O-])ccc23)cc1` showed a pKa in series [1] of 5.33. The MTD in series [2] was 20 mg/kg/day.
For the compound `N=C(N)NCCCS(=O)(=O)Nc1ccc(Nc2c3ccccc3nc3cc([N+](=O)[O-])ccc23)cc1`, in series [1], the pKa came to 5.34.
The same measure, in the same setting: then `NCCCCCCCS(=O)(=O)Nc1ccc(Nc2c3ccccc3nc3cc([N+](=O)[O-])ccc23)cc1`, with 5.36; and `Cc1ccc2c(Nc3ccc(NS(=O)(=O)CCCCN)cc3)c3ccc([N+](=O)[O-])cc3nc2c1C`, with 5.52.
On to `Cl.NCCCCCS(=O)(=O)Nc1ccc(Nc2c3ccccc3nc3cc([N+](=O)[O-])ccc23)cc1`, for which the pKa in series [1] was 5.36. In series [2], this compound showed an MTD of 44 mg/kg/day.
The compound `C[n+]1c2ccccc2c(Nc2ccc(NS(=O)(=O)CCNC(=O)CCN)cc2)c2ccccc21` yielded a pKa in series [1] of 6.7.
`NCCC(=O)NCCS(=O)(=O)Nc1ccc(Nc2c3ccccc3nc3cc([N+](=O)[O-])ccc23)cc1` showed a pKa in series [1] of 5.35.
In series [1], `NCCCCS(=O)(=O)Nc1ccc(Nc2c3ccccc3nc3ccccc23)cc1` showed a pKa of 6.91.
`N=C(N)NCCCCCCS(=O)(=O)Nc1ccc(Nc2c3ccccc3nc3cc([N+](=O)[O-])ccc23)cc1` came in with a pKa in series [1] of 5.35.
Still for that read-out and setting: under `NCCS(=O)(=O)Nc1ccc(Nc2c3ccccc3nc3cc([N+](=O)[O-])ccc23)cc1` stands 5.25; under `CC(=O)Nc1ccc2c(Nc3ccc(NS(=O)(=O)CCCCN)cc3)c3ccccc3nc2c1`, 7.16.
For `Cl.NCCCCCCCCS(=O)(=O)Nc1ccc(Nc2c3ccccc3nc3cc([N+](=O)[O-])ccc23)cc1`, the pKa in series [1] came to 5.35. The MTD in series [3] came to 30 mg/kg/day.
The matching figures for `Cc1cccc2c(Nc3ccc(NS(=O)(=O)CCCCN)cc3)c3ccc([N+](=O)[O-])cc3nc12.Cl`: 5.44 and 200 mg/kg/day.
The matching figures for `Cl.NCCCCCCS(=O)(=O)Nc1ccc(Nc2c3ccccc3nc3ccccc23)cc1`: 6.92 and 65 mg/kg/day.
In the case of `NCCC(=O)NCCS(=O)(=O)Nc1ccc(Nc2c3ccccc3nc3ccccc23)cc1`, in series [1], the pKa was determined as 6.91.
With `C[n+]1c2ccccc2c(Nc2ccc(NS(=O)(=O)CCCCNC(=N)N)cc2)c2ccccc21.[Br-]`, the pKa in series [1] turned out to be 6.69. The compound also displayed an MTD in series [3] of 150 mg/kg/day.
On the same counts, the results for `Cl.N=C(N)NCCCCS(=O)(=O)Nc1ccc(Nc2c3ccccc3nc3ccccc23)cc1` are 6.91 and 75 mg/kg/day.
Compound `Cl.NCCCCCS(=O)(=O)Nc1ccc(Nc2c3ccccc3nc3ccccc23)cc1` returned a pKa in series [1] of 6.92. The compound further displayed an MTD in series [3] of 60 mg/kg/day.
`N=C(N)NCCCCCS(=O)(=O)Nc1ccc(Nc2c3ccccc3nc3cc([N+](=O)[O-])ccc23)cc1`: in series [1], the pKa amounted to 5.36.
The compound `Cl.NCCS(=O)(=O)Nc1ccc(Nc2c3ccccc3nc3ccccc23)cc1` came in with a pKa in series [1] of 6.62. The MTD in series [3] came to 35 mg/kg/day.
For `Cc1cccc2c(Nc3ccc(NS(=O)(=O)CCCCNC(=N)N)cc3)c3cccc(C)c3nc12`, in series [1], the pKa amounted to 6.41.
Consider `CC(=O)Nc1ccc2c(Nc3ccc(NS(=O)(=O)CCNC(=N)N)cc3)c3ccc([N+](=O)[O-])cc3nc2c1`, for which the pKa in series [1] is 5.55.
`COc1cc(NS(=O)(=O)CCCCN)ccc1Nc1c2ccccc2nc2cc([N+](=O)[O-])ccc12` displayed a pKa in series [1] of 5.58.
Still for that read-out and setting: then `Nc1c2ccccc2nc2ccccc12` [AMINACRINE], with 9.6.
On the same count and under the same terms, then `NCC(=O)NCCS(=O)(=O)Nc1ccc(Nc2c3ccccc3nc3ccccc23)cc1`, with 6.9; and `N=C(N)NCCCS(=O)(=O)Nc1ccc(Nc2c3ccc([N+](=O)[O-])cc3nc3cc([N+](=O)[O-])ccc23)cc1`, with 3.68; and `NCC(=O)NCCS(=O)(=O)Nc1ccc(Nc2c3ccccc3nc3cc([N+](=O)[O-])ccc23)cc1`, with 5.34.
Still for that read-out and setting: under `CC(=O)Nc1ccc2c(Nc3ccc(NS(=O)(=O)CCCNC(=N)N)cc3)c3ccc([N+](=O)[O-])cc3nc2c1` stands 5.58.

As a reminder, the pKa is the negative logarithm of the acid dissociation constant.
